# Experiments:
# [1] = molecular target: T1, GtfC (Streptococcus mutans, UniProt P13470); assay: SDS-PAGE in-gel zymographic glucan-production assay at […]; type: cell-based; set-up: native GtfC from culture supernatant of S. mutans GtfBD double mutant; conditions: read-out: % inhibition at 25 μM
# Target sequence in this assay (P13470 35-1455): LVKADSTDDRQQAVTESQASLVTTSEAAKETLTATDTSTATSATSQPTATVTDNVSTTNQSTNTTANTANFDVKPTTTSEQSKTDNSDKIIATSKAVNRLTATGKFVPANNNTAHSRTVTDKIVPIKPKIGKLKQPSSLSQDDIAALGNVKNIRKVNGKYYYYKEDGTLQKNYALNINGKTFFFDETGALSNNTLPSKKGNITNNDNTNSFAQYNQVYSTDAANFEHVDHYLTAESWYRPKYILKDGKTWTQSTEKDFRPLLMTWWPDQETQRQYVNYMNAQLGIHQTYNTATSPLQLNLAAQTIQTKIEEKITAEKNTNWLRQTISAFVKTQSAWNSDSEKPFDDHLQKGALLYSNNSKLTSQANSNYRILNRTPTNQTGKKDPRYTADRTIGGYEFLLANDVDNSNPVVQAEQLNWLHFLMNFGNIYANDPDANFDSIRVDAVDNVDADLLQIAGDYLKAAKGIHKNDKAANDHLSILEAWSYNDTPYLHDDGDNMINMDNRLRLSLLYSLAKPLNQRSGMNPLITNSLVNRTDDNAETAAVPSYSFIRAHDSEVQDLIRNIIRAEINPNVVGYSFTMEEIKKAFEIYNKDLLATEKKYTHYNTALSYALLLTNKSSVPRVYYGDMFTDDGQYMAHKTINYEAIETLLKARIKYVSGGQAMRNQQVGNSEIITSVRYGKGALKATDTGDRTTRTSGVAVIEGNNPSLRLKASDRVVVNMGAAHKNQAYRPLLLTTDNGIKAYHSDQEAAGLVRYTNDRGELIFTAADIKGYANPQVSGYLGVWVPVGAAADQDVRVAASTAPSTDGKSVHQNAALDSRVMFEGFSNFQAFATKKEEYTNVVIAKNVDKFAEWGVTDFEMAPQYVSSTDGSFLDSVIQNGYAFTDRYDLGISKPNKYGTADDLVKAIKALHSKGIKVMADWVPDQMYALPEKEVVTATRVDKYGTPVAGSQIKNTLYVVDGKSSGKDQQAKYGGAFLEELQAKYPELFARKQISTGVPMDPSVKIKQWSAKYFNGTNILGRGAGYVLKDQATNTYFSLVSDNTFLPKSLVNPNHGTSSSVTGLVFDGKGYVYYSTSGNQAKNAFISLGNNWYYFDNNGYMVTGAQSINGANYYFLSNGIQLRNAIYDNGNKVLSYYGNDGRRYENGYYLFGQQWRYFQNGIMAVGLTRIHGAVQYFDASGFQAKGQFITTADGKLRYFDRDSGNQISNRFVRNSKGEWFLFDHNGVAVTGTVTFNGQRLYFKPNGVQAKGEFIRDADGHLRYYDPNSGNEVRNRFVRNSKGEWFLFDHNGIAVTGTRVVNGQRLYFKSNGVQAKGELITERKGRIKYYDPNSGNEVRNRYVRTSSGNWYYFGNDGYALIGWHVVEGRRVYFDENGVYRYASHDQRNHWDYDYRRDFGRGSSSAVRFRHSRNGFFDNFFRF
# [2] = molecular target: T2, GtfB (Streptococcus mutans, UniProt P08987); assay: as above; type: cell-based; set-up: native GtfB from culture supernatant of S. mutans GtfCD double mutant; conditions: read-out: % inhibition at 25 μM
# Target sequence in this assay (P08987 35-1476): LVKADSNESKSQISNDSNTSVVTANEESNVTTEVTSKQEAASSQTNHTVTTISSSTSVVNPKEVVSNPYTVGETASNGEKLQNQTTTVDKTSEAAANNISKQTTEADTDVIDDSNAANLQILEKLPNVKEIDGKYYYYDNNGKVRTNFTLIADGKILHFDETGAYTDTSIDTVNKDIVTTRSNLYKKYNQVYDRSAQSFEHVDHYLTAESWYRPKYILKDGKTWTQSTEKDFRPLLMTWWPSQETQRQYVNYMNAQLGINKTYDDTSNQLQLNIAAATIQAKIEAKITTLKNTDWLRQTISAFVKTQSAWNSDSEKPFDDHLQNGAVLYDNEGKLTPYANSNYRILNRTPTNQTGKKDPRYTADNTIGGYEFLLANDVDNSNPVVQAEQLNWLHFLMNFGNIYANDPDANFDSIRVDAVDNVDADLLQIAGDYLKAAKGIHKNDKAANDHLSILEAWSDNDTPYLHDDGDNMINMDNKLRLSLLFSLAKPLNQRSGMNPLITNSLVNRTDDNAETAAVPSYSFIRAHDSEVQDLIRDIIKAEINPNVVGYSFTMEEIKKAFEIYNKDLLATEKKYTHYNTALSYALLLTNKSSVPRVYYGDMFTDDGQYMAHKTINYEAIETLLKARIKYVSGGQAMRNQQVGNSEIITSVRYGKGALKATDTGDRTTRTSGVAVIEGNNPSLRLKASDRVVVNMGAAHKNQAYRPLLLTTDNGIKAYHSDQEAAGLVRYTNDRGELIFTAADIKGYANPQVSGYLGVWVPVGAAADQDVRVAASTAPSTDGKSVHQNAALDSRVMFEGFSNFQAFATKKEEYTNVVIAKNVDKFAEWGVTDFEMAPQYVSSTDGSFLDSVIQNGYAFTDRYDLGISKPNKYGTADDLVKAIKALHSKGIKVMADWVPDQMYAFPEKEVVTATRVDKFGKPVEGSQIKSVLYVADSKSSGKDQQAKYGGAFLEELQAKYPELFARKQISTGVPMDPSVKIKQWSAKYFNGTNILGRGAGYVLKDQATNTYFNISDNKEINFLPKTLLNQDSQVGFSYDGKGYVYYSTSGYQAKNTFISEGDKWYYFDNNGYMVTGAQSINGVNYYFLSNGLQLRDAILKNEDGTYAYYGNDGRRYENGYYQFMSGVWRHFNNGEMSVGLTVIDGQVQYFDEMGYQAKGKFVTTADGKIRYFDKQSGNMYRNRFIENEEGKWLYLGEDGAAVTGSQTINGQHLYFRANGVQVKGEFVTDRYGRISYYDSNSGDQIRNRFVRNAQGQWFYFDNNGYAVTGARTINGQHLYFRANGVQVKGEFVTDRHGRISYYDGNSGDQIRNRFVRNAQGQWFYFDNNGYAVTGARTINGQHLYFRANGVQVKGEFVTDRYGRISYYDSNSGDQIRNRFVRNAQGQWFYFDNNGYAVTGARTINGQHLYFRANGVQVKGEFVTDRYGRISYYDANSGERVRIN
# [3] = molecular target: T2, GtfB; assay: Binding study (Octet, details in supplement); weak inactive analog; set-up: catalytic domain, residues 268 aa–1074 aa
# Target sequence in this assay (P08987 268-1074): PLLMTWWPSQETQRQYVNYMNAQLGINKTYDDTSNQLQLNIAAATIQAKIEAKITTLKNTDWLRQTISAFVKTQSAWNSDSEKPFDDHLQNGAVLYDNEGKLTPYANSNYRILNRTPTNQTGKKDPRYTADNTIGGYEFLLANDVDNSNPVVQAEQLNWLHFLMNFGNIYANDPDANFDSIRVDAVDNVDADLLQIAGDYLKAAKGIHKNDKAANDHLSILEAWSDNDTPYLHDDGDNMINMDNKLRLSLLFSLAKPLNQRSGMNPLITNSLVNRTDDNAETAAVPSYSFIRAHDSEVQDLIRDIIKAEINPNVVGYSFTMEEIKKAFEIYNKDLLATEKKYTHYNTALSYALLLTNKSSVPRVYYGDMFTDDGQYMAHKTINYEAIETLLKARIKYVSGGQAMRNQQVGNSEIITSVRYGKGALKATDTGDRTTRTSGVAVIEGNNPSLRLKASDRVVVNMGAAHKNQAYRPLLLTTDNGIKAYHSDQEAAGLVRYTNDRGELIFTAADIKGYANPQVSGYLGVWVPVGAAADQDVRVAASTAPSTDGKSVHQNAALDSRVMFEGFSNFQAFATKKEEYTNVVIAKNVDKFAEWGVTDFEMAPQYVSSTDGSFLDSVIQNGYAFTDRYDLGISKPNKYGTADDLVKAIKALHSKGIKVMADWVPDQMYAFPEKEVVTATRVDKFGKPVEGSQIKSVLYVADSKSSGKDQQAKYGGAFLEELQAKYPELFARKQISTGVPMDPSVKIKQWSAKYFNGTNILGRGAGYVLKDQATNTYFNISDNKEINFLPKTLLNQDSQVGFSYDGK
# [4] = molecular target: T1, GtfC; assay: Bio-layer interferometry (OctetRed96), […] binding model; supported by zymographic inhibition ([…] at […]); set-up: his-tagged catalytic domain, residues 295 aa–1103 aa
# Target sequence in this assay (P13470 295-1103): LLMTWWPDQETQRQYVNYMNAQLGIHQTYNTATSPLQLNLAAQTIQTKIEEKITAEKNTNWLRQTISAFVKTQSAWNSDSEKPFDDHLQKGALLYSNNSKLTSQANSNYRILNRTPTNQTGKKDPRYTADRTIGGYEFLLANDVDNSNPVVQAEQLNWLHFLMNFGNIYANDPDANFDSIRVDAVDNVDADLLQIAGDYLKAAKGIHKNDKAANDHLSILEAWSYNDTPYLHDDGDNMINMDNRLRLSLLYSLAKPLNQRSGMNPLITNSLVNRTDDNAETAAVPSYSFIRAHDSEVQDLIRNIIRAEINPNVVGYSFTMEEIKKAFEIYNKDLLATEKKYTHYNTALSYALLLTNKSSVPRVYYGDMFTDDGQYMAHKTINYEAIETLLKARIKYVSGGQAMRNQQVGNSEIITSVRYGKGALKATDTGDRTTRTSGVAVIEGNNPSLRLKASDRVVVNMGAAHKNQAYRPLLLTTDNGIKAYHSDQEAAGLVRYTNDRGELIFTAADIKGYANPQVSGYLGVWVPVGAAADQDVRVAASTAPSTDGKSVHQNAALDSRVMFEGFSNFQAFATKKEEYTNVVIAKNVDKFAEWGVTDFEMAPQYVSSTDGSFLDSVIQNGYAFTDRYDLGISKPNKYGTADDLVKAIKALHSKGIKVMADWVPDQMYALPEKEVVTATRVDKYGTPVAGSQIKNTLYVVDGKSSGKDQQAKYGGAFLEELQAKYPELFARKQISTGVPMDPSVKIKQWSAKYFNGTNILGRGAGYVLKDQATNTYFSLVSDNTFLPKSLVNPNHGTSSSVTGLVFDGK
# [5] = molecular target: T2, GtfB; assay: as above; set-up: his-tagged catalytic domain, residues 268 aa–1074 aa
# Target sequence in this assay (P08987 268-1074): as the sequence (P08987 268-1074) above
compound,measurement,setting,value
O=C(c1ccc(F)cc1)c1ccc(-c2[nH]c(-c3ccc([N+](=O)[O-])cc3O)nc2-c2ccccc2)cc1 [#G16],inhibition at 25 µM,[1],~70%
same,inhibition at 25 µM,[2],~60%
O=C(Nc1ccccc1)c1cc2cc([N+](=O)[O-])ccc2s1 [#G43-D],Kd,[3],68 µM
NC(=O)c1ccccc1NC(=O)c1cc2cc([N+](=O)[O-])ccc2s1 [#G43],Kd,[4],0.0469 µM
same,Kd,[5],3.7 µM

# Reference: PMC5519559, “Structure-Based Discovery of Small Molecule Inhibitors of Cariogenic Virulence” (Scientific Reports, 2017)
